Data from PubChem BioAssay (NCI).
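A five-concentration, 48-hour dose response in 96-well plates underlies each endpoint, interpolated linearly between surrounding concentrations. The concentration for 50% growth inhibition is given as GI50. TGI: concentration producing complete growth inhibition.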

Experiments:
Experiment in all cases: NCI-60 cell line screen, 48 h
[1] = test system: MDA-MB-231 breast
[2] = test system: K-562 leukemia
[3] = test system: T-47D breast
[4] = test system: UACC-257 melanoma
[5] = test system: RPMI-8226 leukemia
[6] = test system: SW-620 colon
[7] = test system: SF-295 CNS
[8] = test system: OVCAR-8 ovarian
[9] = test system: UO-31 renal
[10] = test system: HCC-2998 colon
[11] = test system: U251 CNS
[12] = test system: SF-539 CNS
[13] = test system: MCF7 breast
[14] = test system: HCT-15 colon
[15] = test system: OVCAR-3 ovarian
[16] = test system: MDA-MB-435
[17] = test system: HOP-62 NSCLC
[18] = test system: ACHN renal
[19] = test system: SK-MEL-2 melanoma
[20] = test system: DU-145 prostate
[21] = test system: LOX IMVI melanoma
[22] = test system: HT29 colon
[23] = test system: KM12 colon
[24] = test system: A549 NSCLC
[25] = test system: NCI-H460 lung
[26] = test system: SK-MEL-28 melanoma
[27] = test system: M14 melanoma
[28] = test system: 786-0 renal
[29] = test system: SNB-75 CNS
[30] = test system: EKVX NSCLC
[31] = test system: OVCAR-5 ovarian
[32] = test system: NCI/ADR-RES ovarian
[33] = test system: UACC-62 melanoma
[34] = test system: RXF 393 renal
[35] = test system: NCI-H23 lung
[36] = test system: COLO 205 colon
[37] = test system: TK-10 renal
[38] = test system: CAKI-1 renal
[39] = test system: SR leukemia
[40] = test system: SK-OV-3 ovarian
[41] = test system: HCT-116 colon
[42] = test system: SK-MEL-5 melanoma
[43] = test system: SNB-19 CNS
[44] = test system: HOP-92 NSCLC
[45] = test system: PC-3 prostate
[46] = test system: NCI-H522 lung
[47] = test system: A498 renal
[48] = test system: BT-549 breast
[49] = test system: NCI-H226 lung
[50] = test system: SN12C renal
[51] = test system: MOLT-4 leukemia
[52] = test system: OVCAR-4 ovarian
[53] = test system: HL-60(TB) leukemia
[54] = test system: CCRF-CEM leukemia
[55] = test system: HS 578T breast
[56] = test system: SF-268 CNS
[57] = test system: IGROV1 ovarian
[58] = test system: MALME-3M melanoma
[59] = test system: MDA-MB-468 breast

Q: What does the source list for `Cc1ccc(O)cc1Nc1nc(SCCN2CCOCC2)nc2c1cnn2CC(Cl)c1ccc(Br)cc1` (stereo not drawn)?
A: GI50 [1]: 2.5 µM; TGI [1]: 14.3 µM; GI50 [2]: 0.0575 µM; TGI [2]: 2.73 µM; GI50 [3]: 2.14 µM; TGI [3]: > 100 µM; GI50 [4]: 9.87 µM; TGI [4]: 24.7 µM; GI50 [5]: 4.37 µM; TGI [5]: 28.4 µM; GI50 [6]: 14.6 µM; TGI [6]: 78.1 µM; GI50 [7]: 2.36 µM; TGI [7]: 12 µM; GI50 [8]: 4.45 µM; TGI [8]: 21.2 µM; GI50 [9]: 2.25 µM; TGI [9]: 31.5 µM; GI50 [10]: 3.93 µM; TGI [10]: 15.2 µM; GI50 [11]: 4.85 µM; TGI [11]: 17.9 µM; GI50 [12]: 3.05 µM; TGI [12]: 13.9 µM; GI50 [13]: 3.4 µM; TGI [13]: 17.3 µM; GI50 [14]: 2.82 µM; TGI [14]: 15.8 µM; GI50 [15]: 11 µM; TGI [15]: 64.9 µM; GI50 [16]: 4.72 µM; TGI [16]: 21.5 µM; GI50 [17]: 4.41 µM; TGI [17]: 30.2 µM; GI50 [18]: 2.21 µM; TGI [18]: 15.4 µM; GI50 [19]: 11.2 µM; TGI [19]: 24.5 µM; GI50 [20]: 8.92 µM; TGI [20]: > 100 µM; GI50 [21]: 1.52 µM; TGI [21]: 3.49 µM; GI50 [22]: 3.36 µM; TGI [22]: 13.6 µM; GI50 [23]: 7.55 µM; TGI [23]: 29.8 µM; GI50 [24]: 3.18 µM; TGI [24]: 18.5 µM; GI50 [25]: 4.26 µM; TGI [25]: 21.8 µM; GI50 [26]: 4.21 µM; TGI [26]: 17.4 µM; GI50 [27]: 2.85 µM; TGI [27]: 15.2 µM; GI50 [28]: 6.22 µM; TGI [28]: 25.4 µM; GI50 [29]: 1.24 µM; TGI [29]: 5.11 µM; GI50 [30]: 3.93 µM; TGI [30]: 60.4 µM; GI50 [31]: 3.96 µM; TGI [31]: 18.9 µM; GI50 [32]: 3.13 µM; TGI [32]: 17.3 µM; GI50 [33]: 3.05 µM; TGI [33]: 15.5 µM; GI50 [34]: 0.282 µM; TGI [34]: 3.71 µM; GI50 [35]: 6.21 µM; TGI [35]: 19.5 µM; GI50 [36]: 17.6 µM; TGI [36]: 42.2 µM; GI50 [37]: 15.8 µM; TGI [37]: 32.3 µM; GI50 [38]: 3.53 µM; TGI [38]: 33.1 µM; GI50 [39]: 2.34 µM; TGI [39]: 17.5 µM; GI50 [40]: 13.6 µM; TGI [40]: 73.4 µM; GI50 [41]: 3.46 µM; TGI [41]: 13.3 µM; GI50 [42]: 4.17 µM; TGI [42]: 15.9 µM; GI50 [43]: 5.93 µM; TGI [43]: 43.4 µM; GI50 [44]: 2.06 µM; TGI [44]: 8.12 µM; GI50 [45]: 4.98 µM; TGI [45]: 46.1 µM; GI50 [46]: 2.87 µM; TGI [46]: 16.5 µM; GI50 [47]: 6.88 µM; TGI [47]: 21.7 µM; GI50 [48]: 10.1 µM; TGI [48]: 23.2 µM; GI50 [49]: 3.39 µM; TGI [49]: 20.4 µM; GI50 [50]: 2.12 µM; TGI [50]: 13.3 µM; GI50 [51]: 2.65 µM; TGI [51]: 14.5 µM; GI50 [52]: 6.84 µM; TGI [52]: > 100 µM; GI50 [53]: 5.18 µM; TGI [53]: 28.4 µM; GI50 [54]: 4.03 µM; TGI [54]: 39.1 µM; GI50 [55]: 0.832 µM; TGI [55]: 5.67 µM; GI50 [56]: 7.04 µM; TGI [56]: > 100 µM; GI50 [57]: 2.06 µM; TGI [57]: 6.08 µM; GI50 [58]: 3.71 µM; TGI [58]: 16.6 µM; GI50 [59]: 1.84 µM; TGI [59]: 4.69 µM
